Tests used:
mice = assay: Acute toxicity, intraperitoneal administration to mice; type: in vivo, mouse; details: 100 mg/kg
Solubility = type: physicochemical; details: for Solubility: insoluble in: solvents in which insoluble; for Solubility: soluble in: solvents in which soluble
Anti-depressant activity = details: no test details given
Nature (basicity) = type: physicochemical

Structure (SMILES)	Acute toxicity: mortalities (mice)	Solubility: insoluble in (Solubility)	Solubility: soluble in (Solubility)	anti-depressant activity (Anti-depressant activity)	Nature (Nature (basicity))
Nc1ncnc2c1ncn2C1C(O)C2OC2(CO)C1O (stereo not drawn) [neplanocin B]	No mortalities were observed	Insoluble: ethyl acetate, chloroform, benzene and diethyl ether	Soluble: water and dimethyl sulphoxide	has an anti-depressant activity	weakly basic
Nc1ncnc2c1ncn2C1C(O)C=C(CO)C1O (stereo not drawn) [neplanocin F]	No mortalities were observed	Insoluble: ethyl acetate, chloroform, benzene and diethyl ether	Soluble: water, dimethyl sulphoxide and acetic acid		weakly basic

Source: patent US4321376A, “Neplanocin-B and -F” (Toyo Jozo Kabushiki Kaisha, priority 1979, dated 1982)
